Assay results as given in US20100150890A1, “MEDICINAL COMPOSITION, FOOD OR DRINK HAVING EFFECT OF ENHANCING SYMPATHETIC NERVOUS ACTIVITY” (SUNTORY HOLDINGS LIMITED, priority 2005, published 2010).

Tests used:
Format in all cases: in vivo
[1] = Rat blood pressure after transduodenal administration (left femoral artery cannula, transducer); conditions: urethane-anesthetized male rat, transduodenal 10 μg/2 ml per animal, vs physiological saline control; FIG. 4
Method: (§1) In these experiments, use was made of male Mister rats weighing about 300 g which had been fed in a thermostatic chamber (24° C.) with a light-dark cycle of 12-hour intervals (under illumination from 8:00 to 20:00) for 1 week or longer. A single rat was employed for each nervous experiment. The animals were fed with a feed (Oriental Yeast, MF) and water ad libitum. The autonomic nervous activity were examined by fasting the rats for 3 hours on the day of the experiment and then subjecting to an abdominal surgery under urethane-anesthesia at the intermediate point of the light period. Then, the effects of the transduodenal administration of 2,3-dihydro-3,5-dihydroxy-6-methyl-4H-pyran-4-one obtained in Example 1 on the kidney sympathetic nervous activity, stomach vagal (parasympathetic) nervous activity and blood pressure were measured in accordance with the method reported by T. Yamano et al., Neurosci. […] A cannula was inserted into the left femoral artery and then the blood pressure was measured by use of a transducer. […] Electrical nervous activity thus obtained were amplified with a condenser type differential amplifier, monitored with an oscilloscope and recorded on a magnetic tape. […] The data was analyzed based on the average discharge frequency per 5 seconds (pulse/5 sec) and expressed as a percentage by referring to the level before the administration as to 100%. […]

[2] = tested on: interscapular brown adipose tissue sympathetic nervous activity; experiment: Rat interscapular brown adipose tissue sympathetic nervous activity after transduodenal administration; conditions: transduodenal administration 10 μg, single rat, FIG. 6
[3] = tested on: stomach vagal (parasympathetic) nervous activity; experiment: Rat stomach vagal (parasympathetic) nervous activity after transduodenal administration; conditions: urethane-anesthetized male rat, transduodenal 10 μg/2 ml per animal, vs physiological saline control; FIG. 5
Method: as §1

[4] = tested on: kidney sympathetic nervous activity; experiment: Rat kidney sympathetic nervous activity after transduodenal administration; conditions: urethane-anesthetized male rat, transduodenal 10 μg/2 ml per animal, vs physiological saline control; FIG. 3
Method: as §1

[5] = tested on: epididymal white adipose tissue sympathetic nervous activity; experiment: Rat epididymal white adipose tissue sympathetic nervous activity after transduodenal administration; conditions: transduodenal administration 10 μg, single rat, FIG. 7
[6] = Rat oxygen consumption (energy metabolism) after forced oral administration; conditions: male SD rats fasted 16 hours, 40 μg/8 ml/kg body weight forced oral, within 60 minutes after administration, 5 rats per group; FIG. 8
Method: Male SD rats aged 7 weeks were preliminarily fed with a solid feed (CE-2: NIPPON CREA) and water ad libitum for 1 week for the habituation to the light-dark cycle of 12-hour intervals. The thus habituated animals were fasted for 16 hours before the administration of the samples and then divided into two groups. Then, 40 μg/8 ml/kg body weight of DDMP and 8 ml/kg body weight of distilled water for injection were forcibly orally administered into the stomach to the respective groups. Within 60 minutes following the administration, oxygen consumption was measured with a metabolic meter for small animals (MK-5000RQ2: manufactured by MUROMACHI KIKAI Co., Ltd.). A combination of a DDMP-administered rat with a water-administered rat was referred to as a single experimental lot and the averages of five combinations (i.e., a DDMP-administered group having 5 rats and a water-administered group having 5 rats) were calculated.

CC1=C(O)C(=O)C(O)CO1 (stereo not drawn) [DDMP, 2,3-Dihydro-3,5-dihydroxy-6-methyl-4H-pyran-4-one]
blood pressure [1]: not elevated | interscapular brown adipose tissue sympathetic nervous activity [2]: enhanced | stomach vagal (parasympathetic) nervous activity [3]: reduced | kidney sympathetic nervous activity (discharge frequency vs level before administration) [4]: enhanced | epididymal white adipose tissue sympathetic nervous activity [5]: enhanced | oxygen consumption compared with the water-administered group [6]: increase in oxygen consumption
